Test results published in patent US20150306096A1, “8'-HYDROXY-DIHYDROERGOTAMINE COMPOUNDS AND COMPOSITIONS” (MAP Pharmaceuticals, Inc., priority 2012, published 2015).
Read-outs that look alike come from different tables or passages of the source.

Key:
[1] = target: T1, human Serotonin 5-HT1F receptor (Homo sapiens, UniProt P30939); test: cAMP HTRF functional assay (agonist/antagonist); type: cell-based
T1 construct: expressed in transfected cells; host or cells: CHO-K1
Experimental: Functional profiling of agonist and antagonist activities of 8′-OH DHE on human Adrenergic α1D, Dopamine D2L, and Serotonin 5-HT1B, 5-HT1D, 5-HT1F, 5-HT3, 5-HT4e and 5-HT5A receptors (compared against the parent (DHE) molecule) was carried out as follows.
The SPA 35S-GTPγS tests were conducted with Euroscreen membrane preparations […]. The HTRF assays were conducted with recombinant cell lines. The receptor accession numbers, cellular background and reference compounds are as reported below in Table 10.
(4) DHE and 8′-OH DHE were tested for agonist and antagonist activity at the human Serotonin 5-HT1F and Serotonin 5-HT4E receptors using cAMP HTRF assay (in triplicate) at the following nanomolar concentrations: […]
Agonist activity of the test compounds was expressed as a percentage of the activity of the reference agonist at its EC100 concentration. Antagonist activity of the test compounds was expressed as a percentage of the inhibition of the reference agonist activity at its EC80 concentration. Dose-response data from the test compounds were analyzed with XLfit (IDBS) software using nonlinear regression applied to a sigmoidal dose-response model and the following equation: […]

[2] = cited from earlier work
human 5-HT1B receptor = target: T2, human 5-HT1B receptor (Homo sapiens, UniProt P28222); test: Radioligand competition binding and kinetics, CHO-K1 membranes
T2 construct: purchased Euroscreen; host or cells: CHO-K1
Experimental: For kinetics of radioligand competitive binding, serial dilutions were performed from master solution in 100% DMSO to obtain intermediate concentrations 200-fold higher than the concentrations to be tested. Each test sample was diluted 100-fold in the assay buffer and dispensed into the test plate.
5-HT1B Radioligand Binding Assay
Assay buffer: 50 mM Tris (pH 7.4), 12.5 mM MgCl2, 0.1% ascorbic acid, 1 mM EDTA Washing buffer: 50 mM Tris (pH 7.4) Membrane: recombinant CHO-K1-5-HT1B membranes thawed on ice and diluted in assay buffer (7 μg/well)
Ligand: 5-CT (Tocris, 0458)
Radioligand: [^3H]-CT (Perkin Elmer, TRK1038, diluted in assay buffer for a final concentration of 0.6 nM) Filter plate: GF/B Unifilter plate (Perkin Elmer, 6005177) presoaked in 0.5% PEI for 2 hours at RT.
Determination of the Kon constant. Radioligand association kinetics on each receptor were performed by adding in the wells of a 96 well plate 50 μL of radioligand and 50 μL of membrane extracts. The samples were incubated for the times reported in Table 3 below at a temperature optimized for each receptor and filtered over a filter plate. After washing the filters 5 times with 0.5 mL of ice-cold washing buffer, 50 μL of Microscint 20 (Packard) were added to the filters and the plates were incubated 15 min on an orbital shaker and then counted for 1 min/well. This allowed determination of the kobs for each radioligand. Association kinetics were performed at 5 different radioligand concentrations optimized for each receptor (see Table 3 below) to determine 5 different kobs. The different kobs were then plotted against the [radioligand] and the K. was calculated using the following equation: kon=(kobs−koff)[radioligand].
Determination of the Koff constant. Radioligand dissociation kinetics on each receptor were performed by adding in the wells of a 96 well plate 45 μL of radioligand and 45 μL of membrane extracts. The samples were incubated as reported in Table 4 below at a temperature optimized for each receptor until binding equilibrium was reached as determined by the association kinetics experiment. Then, 100 μL of cold competitor (reference ligand) were added at a 200 fold excess (final concentration) for the times reported in Table 4 at the optimized temperature. The samples were then filtered over a filter plate. After washing the filters 5 times with 0.5 mL of ice-cold washing buffer, 50 μL of Microscint 20 (Packard) were added to the filters and the plates were incubated 15 min on an orbital shaker and then counted for 1 min/well. This allowed determination of the koff for each radioligand.
Determination of IC50 and Ki constant for each test compound. Radioligand competition binding on each receptor were performed by adding in the wells of a 96 well plate […] of test compound at increasing concentration as reported in Table 5 below, 25 μL of radioligand and 25 μL of membrane extracts. The samples were incubated for 60 min (or 4 hours for a second experiment on 5-HT2B receptors) at a temperature optimized for each receptor and then filtered over a filter plate. After washing the filters 5 times with 0.5 mL of ice-cold washing buffer, 50 μL of Microscint 20 (Packard) were added to the filters and the plates were incubated 15 min on an orbital shaker and then counted for 1 min/well. The test compounds were tested in duplicate at the nanomolar concentrations reported below in Table 5.
Determination of kon and koff constants for each test compound. Each compound was first assessed in a pilot experiment to evaluate its effect on the kinetic binding of each receptor-radioligand pair. These pilot experiments were performed at on compound concentration and were composed of 10 time-points measurements in duplicate (2, 5, 10, 20, 30, 45, 60, 90, 120 and 150 minutes).

T2 sequence (P28222 whole entry): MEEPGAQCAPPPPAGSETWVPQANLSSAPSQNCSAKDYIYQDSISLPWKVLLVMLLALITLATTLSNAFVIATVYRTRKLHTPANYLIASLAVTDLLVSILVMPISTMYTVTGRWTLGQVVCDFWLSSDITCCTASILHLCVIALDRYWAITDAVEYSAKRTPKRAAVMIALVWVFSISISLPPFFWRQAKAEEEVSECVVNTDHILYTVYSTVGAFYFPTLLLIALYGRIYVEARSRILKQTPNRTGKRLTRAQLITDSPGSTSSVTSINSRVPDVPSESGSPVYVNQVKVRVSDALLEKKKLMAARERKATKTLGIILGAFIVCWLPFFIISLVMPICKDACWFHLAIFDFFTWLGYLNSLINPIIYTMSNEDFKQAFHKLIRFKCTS
T1 sequence (P30939 whole entry): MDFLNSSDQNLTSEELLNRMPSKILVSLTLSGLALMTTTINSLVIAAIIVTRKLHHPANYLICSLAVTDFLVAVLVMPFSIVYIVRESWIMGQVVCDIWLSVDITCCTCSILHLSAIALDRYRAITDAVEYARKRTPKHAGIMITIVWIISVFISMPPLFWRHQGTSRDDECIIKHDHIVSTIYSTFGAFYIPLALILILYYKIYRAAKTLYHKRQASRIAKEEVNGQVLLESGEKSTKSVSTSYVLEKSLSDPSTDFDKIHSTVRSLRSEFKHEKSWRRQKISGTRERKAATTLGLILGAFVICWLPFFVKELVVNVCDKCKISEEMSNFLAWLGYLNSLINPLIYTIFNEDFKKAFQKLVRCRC

## CN1C[C@H](C(=O)N[C@]2(C)O[C@@]3(O)[C@@H]4CCCN4C(=O)[C@H](Cc4ccccc4)N3C2=O)C[C@@H]2c3cccc4[nH]cc(c34)C[C@H]21 [DHE, Dihydroergotamine]
[1]
  Agonist and antagonist activity: inactive
[2]; serum
  serum half-life: 10 to 13 h
Human 5-HT1B receptor
  IC50: 0.55 nM
Human 5-HT1B receptor; 5-HT1B
  Avg Dissociation half-life: 1.38 h
Human 5-HT1B receptor; read-out: Avg Koff
  koff: 0.00014 s⁻¹

## CN1C[C@H](C(=O)N[C@]2(C)O[C@@]3(O)[C@@H]4CCC(O)N4C(=O)[C@H](Cc4ccccc4)N3C2=O)C[C@@H]2c3cccc4[nH]cc(c34)C[C@H]21 (stereo partly shown) [8′-OH DHE, 8′-Hydroxy-Dihydroergotamine]
[1]
  Agonist and antagonist activity: inactive
[2]; previous studies
  metabolite concentration relative to parent DHE: 5 to 7 times
Human 5-HT1B receptor; 5-HT1B
  Avg Dissociation half-life: 1.94 h
  Avg Koff: 9.83e-05 s⁻¹
Human 5-HT1B receptor; 5-HT1B, [3H]-CT, read-out: IC50 from binding assay
  IC50: 0.77 nM
